Tested on: hepatocytes
Test: Seq-Well scRNA-Seq of hepatocytes after APAP overdose (signature scores, DEG vs untreated)
Type: in vivo, mouse
[1] = A24 (24 h post-APAP) vs other clusters, Wilcox

CC(=O)Nc1ccc(O)cc1 [APAP, acetaminophen]
Vcam1 avg_logFC (A6 vs UT): 0.4574
Vcam1 pct.1 (A6 vs UT): 0.134
Vkorc1 avg_logFC (A6 vs UT): −0.4042
Vkorc1 pct.1 (A6 vs UT): 0.296
Vsig4 avg_logFC (A6 vs UT): 0.4833
Vsig4 pct.1 (A6 vs UT): 0.117
Wbp1l avg_logFC (A6 vs UT): 0.5535
Wdr26 avg_logFC (A6 vs UT): 0.4325
Wdr26 pct.1 (A6 vs UT): 0.549
Wfdc17 avg_logFC (A6 vs UT): 0.4867
Wfdc17 pct.1 (A6 vs UT): 0.177
Xbp1 avg_logFC (A6 vs UT): 0.6032
Xrn2 A6logFC (A6 vs UT): 0.2985
Xrn2 avg_logFC (A6 vs UT): 0.2985
Xrn2 pct.1 (A6 vs UT): 0.387
Yap1 A6logFC (A6 vs UT): 0.3281
Ythdc1 A6logFC (A6 vs UT): 0.2641
Ythdc1 avg_logFC (A6 vs UT): 0.2641
Ythdc1 pct.1 (A6 vs UT): 0.301
Ywhag avg_logFC (A6 vs UT): 0.5824
Zbtb20 avg_logFC (A6 vs UT): 0.4715
Zbtb20 pct.1 (A6 vs UT): 0.566
Zfand5 A6logFC (A6 vs UT): 0.2882
Zfand5 avg_logFC (A6 vs UT): 0.2882
Zfand5 pct.1 (A6 vs UT): 0.401
Zfp106 A6logFC (A6 vs UT): 0.3369
Zfp106 avg_logFC (A6 vs UT): 0.3369
Zfp106 pct.1 (A6 vs UT): 0.391
Zfp259 A6logFC (A6 vs UT): 0.2556
Zfp259 avg_logFC (A6 vs UT): 0.2556
Zfp259 pct.1 (A6 vs UT): 0.32
mmu-mir-6240 avg_logFC (A6 vs UT): 1.101
mt-Co2 avg_logFC (A6 vs UT): −1.105
mt-Co3 avg_logFC (A6 vs UT): −0.7059
mt-Co3 pct.1 (A6 vs UT): 0.346
mt-Nd1 avg_logFC (A6 vs UT): −0.3883
mt-Nd4 avg_logFC (A6 vs UT): −0.6388
n-R5-8s1 avg_logFC (A6 vs UT): 0.7661
avg_logFC AA474408 [1]: 0.4148
avg_logFC Abca1 [1]: 0.3831
avg_logFC Acly [1]: 0.4101
avg_logFC Acox1 [1]: 0.2743
avg_logFC Acsl4 [1]: 0.299
avg_logFC Adh4 [1]: 0.392
avg_logFC Ak3 [1]: 0.2505
avg_logFC Aox3 [1]: 0.3489
avg_logFC Arcn1 [1]: 0.3044
avg_logFC Atp8b1 [1]: 0.361
avg_logFC Atp11c [1]: 0.2568
avg_logFC Atxn1 [1]: 0.325
avg_logFC Calm1 [1]: 0.3702
avg_logFC Calu [1]: 0.3005
avg_logFC Canx [1]: 0.2771
avg_logFC Cltc [1]: 0.3397
avg_logFC Cmah [1]: 0.4243
avg_logFC Copa [1]: 0.3334
avg_logFC Cps1 [1]: 0.2775
avg_logFC Ctnnb1 [1]: 0.329
avg_logFC Cxcl1 [1]: 0.453
avg_logFC Cyb5r3 [1]: 0.3097
avg_logFC Ddost [1]: 0.2909
avg_logFC Dhcr24 [1]: 0.2824
avg_logFC Dnajb11 [1]: 0.3288
avg_logFC Dnajc12 [1]: 0.3241
avg_logFC Echdc1 [1]: 0.2818
avg_logFC Edem1 [1]: 0.2675
avg_logFC Efna1 [1]: 0.3161
avg_logFC Eif4g1 [1]: 0.2763
avg_logFC Eif4g2 [1]: 0.3515
avg_logFC Eprs [1]: 0.2513
avg_logFC Etnk1 [1]: 0.3194
avg_logFC Fam120a [1]: 0.2583
avg_logFC Fasn [1]: 0.2699
avg_logFC Fndc3b [1]: 0.3202
avg_logFC Fos [1]: 0.3632
avg_logFC Gjb2 [1]: 0.2998
avg_logFC Gm5424 [1]: 0.262
avg_logFC Gm24245 [1]: 0.414
avg_logFC Grlf1 [1]: 0.2556
avg_logFC Hnf4a [1]: 0.255
avg_logFC Hs3st3b1 [1]: 0.3219
avg_logFC Hsd3b5 [1]: 0.3009
avg_logFC Hsd17b2 [1]: 0.3231
avg_logFC Hspa13 [1]: 0.342
avg_logFC Ibtk [1]: 0.2959
avg_logFC Il6st [1]: 0.3011
avg_logFC Il13ra1 [1]: 0.2889
avg_logFC Insig1 [1]: 0.4125
avg_logFC Kmo [1]: 0.2687
avg_logFC Lasp1 [1]: 0.2608
avg_logFC Lgr4 [1]: 0.2572
avg_logFC Lman1 [1]: 0.2518
avg_logFC Lpgat1 [1]: 0.2525
avg_logFC Lrg1 [1]: 0.3096
avg_logFC Lrp1 [1]: 0.4837
avg_logFC Lrrc59 [1]: 0.2688
avg_logFC Met [1]: 0.2512
avg_logFC Mlec [1]: 0.3405
avg_logFC Mtss1 [1]: 0.2522
avg_logFC Mtus1 [1]: 0.3125
avg_logFC Mug2 [1]: 0.3166
avg_logFC Nab1 [1]: 0.2601
avg_logFC Nars [1]: 0.3127
avg_logFC Nedd4 [1]: 0.3306
avg_logFC Nr1d2 [1]: 0.3855
avg_logFC Nr5a2 [1]: 0.2599
avg_logFC Nrp1 [1]: 0.33
avg_logFC Ostc [1]: 0.3082
avg_logFC Pnpla7 [1]: 0.3966
avg_logFC Prg4 [1]: 0.4007
avg_logFC Prkd3 [1]: 0.3041
avg_logFC Proz [1]: 0.28
avg_logFC Pten [1]: 0.2663
avg_logFC Ptprf [1]: 0.2888
avg_logFC Qsox1 [1]: 0.2818
avg_logFC Rab1 [1]: 0.3145
avg_logFC Rdx [1]: 0.276
avg_logFC Rpn1 [1]: 0.3992
avg_logFC Rrbp1 [1]: 0.2968
avg_logFC Sdf2l1 [1]: 0.3078
avg_logFC Sec31a [1]: 0.2596
avg_logFC Sec61b [1]: 0.3008
avg_logFC Sel1l [1]: 0.2833
avg_logFC Sh3bgrl [1]: 0.2668
avg_logFC Slc3a1 [1]: 0.3074
avg_logFC Slc38a10 [1]: 0.2557
avg_logFC Spcs3 [1]: 0.3907
avg_logFC Srebf1 [1]: 0.3149
avg_logFC Srp72 [1]: 0.28
avg_logFC Srpr [1]: 0.2914
avg_logFC Ssr1 [1]: 0.3129
avg_logFC Stard4 [1]: 0.2922
avg_logFC Stt3b [1]: 0.2648
avg_logFC Tmed7 [1]: 0.3715
avg_logFC Tmem30a [1]: 0.3056
avg_logFC Trip12 [1]: 0.2832
avg_logFC Txndc5 [1]: 0.2758
avg_logFC Uggt1 [1]: 0.2805
avg_logFC Uso1 [1]: 0.3202
avg_logFC Usp4 [1]: 0.2959
avg_logFC Usp9x [1]: 0.3387
avg_logFC Zbtb20 [1]: 0.3135
Atp11c A24logFC (A24 vs UT): 0.2605
Brd2 A24logFC (A24 vs UT): 0.2664
Caprin1 A24logFC (A24 vs UT): 0.2628
Copz1 A24logFC (A24 vs UT): 0.2577
Ctsc A24logFC (A24 vs UT): 0.3004
Ddost A24logFC (A24 vs UT): 0.2504
Deptor A24logFC (A24 vs UT): 0.2606
Eif4b A24logFC (A24 vs UT): 0.256
Fasn A24logFC (A24 vs UT): 0.2914
Gm20594 A24logFC (A24 vs UT): −0.36
Lasp1 A24logFC (A24 vs UT): 0.253
Proz A24logFC (A24 vs UT): 0.2632
Rnf13 A24logFC (A24 vs UT): 0.2553
Ubb A24logFC (A24 vs UT): −0.2593
avg_logFC 1110008F13Rik (A24 vs untreated (UT)): −0.4553
avg_logFC AA474408 (A24 vs untreated (UT)): 0.4364
avg_logFC Aadac (A24 vs untreated (UT)): −0.4038
avg_logFC Abca1 (A24 vs untreated (UT)): 0.4394
avg_logFC Acaa1b (A24 vs untreated (UT)): −0.8508
avg_logFC Acot1 (A24 vs untreated (UT)): −0.2862
avg_logFC Acox1 (A24 vs untreated (UT)): 0.2752
avg_logFC Acsl1 (A24 vs untreated (UT)): −0.3703
avg_logFC Acsl4 (A24 vs untreated (UT)): 0.3147
avg_logFC Actb (A24 vs untreated (UT)): 0.3845
avg_logFC Adh1 (A24 vs untreated (UT)): −0.342
avg_logFC Adh4 (A24 vs untreated (UT)): 0.3769
avg_logFC Ahcy (A24 vs untreated (UT)): −0.563
avg_logFC Ak3 (A24 vs untreated (UT)): 0.289
avg_logFC Akr1c6 (A24 vs untreated (UT)): −0.3176
avg_logFC Alas1 (A24 vs untreated (UT)): −0.4898
avg_logFC Aldh3a2 (A24 vs untreated (UT)): −0.3008
avg_logFC Ankrd55 (A24 vs untreated (UT)): −1.874
avg_logFC Aox3 (A24 vs untreated (UT)): 0.2878
avg_logFC Apcs (A24 vs untreated (UT)): 0.6067
avg_logFC Apoa2 (A24 vs untreated (UT)): −0.5455
avg_logFC Apoa5 (A24 vs untreated (UT)): −0.299
avg_logFC Apob (A24 vs untreated (UT)): 0.4272
avg_logFC Apoc1 (A24 vs untreated (UT)): −0.3803
avg_logFC Apoc3 (A24 vs untreated (UT)): −0.4404
avg_logFC Apoc4 (A24 vs untreated (UT)): −0.4285
avg_logFC Apoe (A24 vs untreated (UT)): −0.4213
avg_logFC Arcn1 (A24 vs untreated (UT)): 0.3278
avg_logFC Arrdc3 (A24 vs untreated (UT)): 0.5269
avg_logFC Atp8b1 (A24 vs untreated (UT)): 0.3628
avg_logFC Atp5h (A24 vs untreated (UT)): −0.5795
avg_logFC Atxn1 (A24 vs untreated (UT)): 0.3049
avg_logFC B2m (A24 vs untreated (UT)): −0.418
avg_logFC BC025446 (A24 vs untreated (UT)): 0.2942
avg_logFC Bhmt (A24 vs untreated (UT)): −0.5202
avg_logFC C3 (A24 vs untreated (UT)): 0.4495
avg_logFC C8a (A24 vs untreated (UT)): 0.3337
avg_logFC C8b (A24 vs untreated (UT)): 0.3187
avg_logFC C8g (A24 vs untreated (UT)): −0.482
avg_logFC Calm1 (A24 vs untreated (UT)): 0.4131
avg_logFC Calr (A24 vs untreated (UT)): 0.5551
avg_logFC Calu (A24 vs untreated (UT)): 0.3041
avg_logFC Canx (A24 vs untreated (UT)): 0.3434
avg_logFC Cat (A24 vs untreated (UT)): 0.2626
avg_logFC Cebpb (A24 vs untreated (UT)): −0.4716
avg_logFC Ces1c (A24 vs untreated (UT)): −0.2783
